Test results: patent EP1605976B1, “PHENYLCARBOXYL ACID AMIDES AND IK r CHANNEL INHIBITORS COMBINATION AND THE USE THEREOF FOR TREATING ATRIAL [sequence]” (Sanofi-Aventis Deutschland GmbH, priority 2003, dated 2004)
Where “and” joins values, the source holds several entries; their conditions need not be identical. Identical values can stand only once.

Key:
[1] = tested on: Ziegen mit persistierendem Vorhofflimmern (AF); assay: Efficiency of cardioversion in up to eight goats with persistent atrial fibrillation; assay type: in vivo
Method: In weiteren Versuchen wurde die Effizienz der Kardioversion bei verschiedenen Dosierungen der Verbindung des Beispiels 1 und bei zusätzlicher Infusion von Ibutilide (2 mg/kg) bzw. Dofetilide (10 µg/kg) an mehreren Ziegen getestet (Tabelle 5).
Es wurden Versuche an bis zu acht Ziegen durchgeführt, die sich in persistierendem Vorhofflimmern befanden. Nach Infusion von 0,9% Kochsalzlösung über 30 min zur Kontrolle wurden bis zu acht Ziegen die Verbindung des Beispiels 1 (jeweils im Abstand von Tagen) in Mengen von jeweils 0.0 (Kontrolle), 0.1, 0.3, 1, 3 und 10 mg pro kg Körpergewicht und pro Stunde über eine Dauer von 90 Minuten infundiert, wobei nach 60 Minuten zusätzlich 2 mg Ibutilide pro Kilogramm Körpergewicht in einem Zeitintervall von 30 min verabreicht wurde.
(§1) Analog wurden an bis zu acht Ziegen nach 60 Minuten Verabreichung verschiedener Mengen der Verbindung des Beispiels 1 (jeweils 0.0 (Kontrolle), 0.1, 0.3, 1,3 und 10 mg pro kg Körpergewicht und pro Stunde jeweils im Abstand von Tagen) zusätzlich 10 µg Dofetilide pro kg Körpergewicht in einem Zeitintervall von 30 Minuten anstelle von Ibutilide verabreicht.
Die Effizienz der Kardioversion von persistierendem Vorhofflimmern (AF) durch die Gabe der Verbindung des Beispiels 1 mit ibutilide bzw. der Verbindung des Beispiels 1 mit Dofetilide sind in der Tabelle 5 bei verschiedenen Dosierungen der Verbindung des Beispiels 1 (0.0, 0.1, 0.3, 1, 3 und 10 mg pro kg Körpergewicht und pro Stunde) dargestellt. Angegeben sind die Anzahl der Ziegen, bei denen Kardioversion auftrat, im Vergleich zu der Anzahl der Ziegen, mit denen der Versuch durchgeführt wurde, und daraus errechnet die Effizienz der Kardioversion in Prozent. Jede Terminierung des persistenten Vorhofflimmerns während einer jeweiligen Infusionsperiode wurde als eine erfolgreiche Kardioversion angesehen. […] Tabelle 5: Effizienz der Kardioversion in Prozent bei Ziegen mit persistierendem Vorhofflimmern (AF) bei verschiedenen Dosierungen der Verbindung des Beispiels 1 und bei zusätzlicher Infusion von Ibutilide bzw. Dofetilide. In Klammern angegeben ist jeweils das Verhältnis Ziegen, bei denen Kardioversion auftrat, zu Ziegen, die bei dem jeweiligen Versuch eingesetzt wurden.

normalen Ziegen = assay: Atrial effective refractory period (AERP) in normal goats; assay type: in vivo; details: for atriale effektive Refraktärzeit (AERP): Nicht remodelliert, cycle length 400 ms, mean ± SD, Beispiel 1 3 mg/kg/h; for Verlängerung der AERP: normal atria
Method: (§2) An chronisch instrumentierten Ziegen wurden die elektrophysiologischen Effekte der Verbindung des Beispiels 1, des IKr-Kanalblockers Ibutilide und der Kombination von der Verbindung des Beispiels 1 und Ibutilide untersucht.
(§3) Nach Infusion von 0,9% Kochsalzlösung über 30 min zur Kontrolle wurden die Substanzen lbutilide und die Verbindung des Beispiels 1 zum einen in Monotherapie und zum anderen in Kombination der beiden Wirkstoffe an 7 normalen Ziegen (d. h. ohne induziertes Vorhofflimmem) durch intravenöse Infusion verabreicht und die atriale effektive Refraktärzeit (AERP) bestimmt. Bei der Monotherapie wurde über die Zeitdauer von 60 Minuten 0.12 mg Ibutilide pro kg Körpergewicht verabreicht (0.002 mg pro kg pro Minute). In der Kombination wurden über die Dauer von 120 Minuten 6 mg der Verbindung des Beispiels 1 pro kg Körpergewicht verabreicht (3mg pro kg pro Stunde), wobei nach 60 Minuten zusätzlich 0.12 mg Ibutilide pro kg pro Stunde für die Dauer von 60 Minuten verabreicht wurden. Die Infusion der Verbindung des Beispiels 1 wurde insgesamt über 120 min durchgeführt. Kontrollmessungen der atrialen effektiven Refraktärzeit wurden einmal vor Gabe des Ibutilides (Kontrolle 1) und einmal vor Gabe der Verbindung des Beispiels 1 (Kontrolle 2) durchgeführt.
Die Kombination beider Substanzen wurde getestet, indem wie oben beschrieben nach der Infusion der Verbindung des Beispiels 1 über eine Stunde zusätzlich Ibutilide verabreicht wurde.
as §3, with “Ein analoges Infusionsschema wurde an 5 weiteren Tieren mit Dofetilide anstelle von Ibutilide durchgeführt. Nach” for “Nach”, “Dofetilide” for “lbutilide”, “5” for “7”, “Vorhofflimmern)” for “Vorhofflimmem)”, “Dofetilide” for “Ibutilide”, “Dofetilids” for “Ibutilides”

[2] = tested on: persistierendem Vorhofflimmern (AF); assay: Cardioversion in chronically fibrillating goats: time points of cardioversion (single goats); assay type: in vivo, Ziegen
Method: (§4) Es wurden Versuche an zwei Ziegen durchgeführt, die sich in persistierendem Vorhofflimmem von mehr als 45 Tagen befanden. Nach Infusion von 0,9% Kochsalzlösung über 30 min zur Kontrolle, wurde einer Ziege die Verbindung des Beispiels 1 der Reihe nach (jeweils im Abstand von Tagen) in Mengen von jeweils 0.0 (Kontrolle), 0.1, 0.3, 1, 3 und 10 mg pro kg Körpergewicht und pro Stunde über eine Dauer von 90 Minuten infundiert, wobei nach 60 Minuten zusätzlich 2 mg Ibutilide pro Kilogramm Körpergewicht in einem Zeitintervall von 30 min verabreicht wurde.
as §1, with “einer zweiten Ziege” for “an bis zu acht Ziegen”, “1, 3” for “1,3”
Die Zeitpunkte der Kardioversion von persistierendem Vorhofflimmem (AF) durch die Gabe der Verbindung des Beispiels 1 mit Ibutilide bzw. der Verbindung des Beispiels 1 mit Dofetilide sind in den Tabellen 3 und 4 bei verschiedenen Dosierungen der Verbindung des Beispiels 1 (0.0, 0.1, 0.3, 1,3 und 10 mg pro kg Körpergewicht und pro Stunde) dargestellt. Tabelle 3: Auftreten der Kardioversion von persistierendem Vorhofflimmern (AF) nach jeweiliger Reinduktion des Vorhofflimmerns bei verschiedenen Dosierungen der Verbindung des Beispiels 1 und bei zusätzlicher Infusion von Ibutilide nach 60 Minuten (Zeitpunkte in Minuten gemessen ab Beginn der Infusion der Verbindung des Beispiels 1)

[3] = tested on: Ziegen, mit remodellierten Vorhöfen; assay: Atrial effective refractory period (AERP) in goats with electrically remodelled atria; assay type: in vivo; details: for atriale effektive Refraktärzeit (AERP): Remodelliert (1-4 days induced AF), cycle length 400 ms, mean ± SD, Beispiel 1 3 mg/kg/h; for Verlängerung des AERP: remodelled atria
Method: as §2, §3
(§5) Das gleiche Infusionsschema wurde an denselben Tieren wiederholt, nachdem elektrische Remodellierung durch induziertes Vorhofflimmern von 1 bis 4 Tagen erzeugt wurde.
as §3, with “Ein analoges Infusionsschema wurde an 5 weiteren Tieren mit Dofetilide anstelle von Ibutilide durchgeführt. Nach” for “Nach”, “Dofetilide” for “lbutilide”, “5” for “7”, “Vorhofflimmern)” for “Vorhofflimmem)”, “Dofetilide” for “Ibutilide”, “Dofetilids” for “Ibutilides”
as §5

[4] = tested on: persistierendem Vorhofflimmern (AF); assay: Atrial fibrillation cycle length (AFCL) in goats with persistent atrial fibrillation; assay type: in vivo, Ziegen
Method: as §4
as §1, with “einer zweiten Ziege” for “an bis zu acht Ziegen”, “1, 3” for “1,3”
In Fig.1 und Fig.2 sind die Messungen der Zykluslänge des atrialen Flimmerns (AFCL) nach kombinierter Gabe von Ibutilide und der Verbindung des Beispiels 1 bzw. nach kombinierter Gabe von Dofetilide und der Verbindung des Beispiels 1 dargestellt. Die Messungen des AFCL und der Kardioversion erfolgten nebeneinander.
In den Zeichnungen wurden folgende Beschriftungen und Kennzeichnungen vorgenommen: • Fig.1: Messung der Zykluslänge des atrialen Flimmerns (AFCL) nach kombinierter Gabe von Ibutilide und der Verbindung des Beispiels 1 Y-Achse: AFCL in ms X-Achse: Zeit in Minuten Die Verbindung des Beispiels 1 wurde in folgenden Mengen infundiert: • 10 mg/kg/h • 3 mg/kg/h • 1 mg/kg/h • 0.3 mg/kg/h • 0.1 mg/kg/h • 0.0 mg/kg/h (Kontrolle) • Fig.2: Messung der Zykluslänge des atrialen Flimmerns (AFCL) nach kombinierter Gabe von Dofetilide und der Verbindung des Beispiels 1 Y-Achse: AFCL in ms X-Achse: Zeit in Minuten Die Verbindung des Beispiels 1 wurde in folgenden Mengen infundiert: • 10 mg/kg/h • 3 mg/kg/h • 1 mg/kg/h • 0.3 mg/kg/h • 0.1 mg/kg/h • 0.0 mg/kg/h (Kontrolle)

[5] = Beispiel 1 dose 0, Ibutilide 2mg/kg or Dofetilide 10µg/kg alone
[6] = 5 goats, i.v. infusion: Dofetilide 0.12 mg/kg over 60 min
[7] = n=5, versus control before dosing (151 ms and 158 ms), Dofetilide study
[8] = n=5, versus control (94 ms and 93 ms), Dofetilide study
[9] = 7 goats, i.v. infusion: Ibutilide 0.12 mg/kg over 60 min
[10] = n=7, versus control before dosing (159 ms and 162 ms), Ibutilide study
[11] = n=7, versus control (93 ms and 97 ms), Ibutilide study
[12] = Fig.1 goat, Ibutilide 2 mg/kg per 30 min given after 60 min (alone: from 94 ms baseline), Beispiel 1 3 mg/kg/h
[13] = Beispiel 1 dose 0,1, alone or + Ibutilide 2mg/kg or + Dofetilide 10µg/kg
[14] = Beispiel 1 dose 0,3, alone or + Ibutilide 2mg/kg or + Dofetilide 10µg/kg
[15] = Beispiel 1 dose 1, alone or + Ibutilide 2mg/kg or + Dofetilide 10µg/kg
[16] = Beispiel 1 dose 10, alone or + Ibutilide 2mg/kg or + Dofetilide 10µg/kg

SMILES: CN(CCOc1ccc(NS(C)(=O)=O)cc1)CCc1ccc(NS(C)(=O)=O)cc1 [Dofetilide, reference compound]
- Effizienz der Cardioversion [1, 5]: 25%
- Verhältnis Ziegen, bei denen Kardioversion auftrat, zu Ziegen, die eingesetzt wurden [1, 5]: (1/4)
- atriale effektive Refraktärzeit (AERP) (normalen Ziegen; [6]): 172 ± 11 ms
- Verlängerung der AERP (normalen Ziegen; [7]): 21 ms
- Kardioversion ([2]; 10 µg/kg Dofetilide over 30 min without Beispiel 1, goat of Tabelle 4): eine Kardioversion nicht eintritt
- atriale effektive Refraktärzeit (AERP) [3, 6]: 101 ± 19 ms
- Verlängerung des AERP [3, 8]: 7 ms
- Anstieg der AFCL ([4]; Fig.2 goat, 10 µg/kg Dofetilide over 30 min without Beispiel 1): 14 ms
- AFCL ([4]; Fig.2 goat, 10 µg/kg Dofetilide over 30 min without Beispiel 1, from 92 ms baseline): 106 ms

SMILES: CCCCCCCN(CC)CCCC(O)c1ccc(NS(C)(=O)=O)cc1 (stereo not drawn) [Ibutilide, reference compound]
- Effizienz der Cardioversion [1, 5]: 29%
- Verhältnis Ziegen, bei denen Kardioversion auftrat, zu Ziegen, die eingesetzt wurden [1, 5]: (2/7)
- atriale effektive Refraktärzeit (AERP) (normalen Ziegen; [9]): 185 ± 23 ms
- Verlängerung der AERP (normalen Ziegen; [10]): 26 ms
- atriale effektive Refraktärzeit (AERP) [3, 9]: 98 ± 20 ms
- Verlängerung des AERP [3, 11]: 5 ms
- AFCL [4, 12]: 101 ms

SMILES: COc1ccc(CC(=O)NCc2ccccc2-c2ccccc2C(=O)NCCc2cccnc2)cc1 [Beispiel 1, 2'-{[2-(4-Methoxy-phenyl)-acetylamino]-methyl}-biphenyl-2-carbonsäure-(2-pyridin-3-yl-ethyl)-amid]
- Effizienz der Cardioversion [1, 13]: 17%
- Verhältnis Ziegen, bei denen Kardioversion auftrat, zu Ziegen, die eingesetzt wurden [1, 13]: (1/6)
- Effizienz der Cardioversion [1, 14]: 17%
- Verhältnis Ziegen, bei denen Kardioversion auftrat, zu Ziegen, die eingesetzt wurden [1, 14]: (1/6)
- Effizienz der Cardioversion [1, 15]: 13%
- Verhältnis Ziegen, bei denen Kardioversion auftrat, zu Ziegen, die eingesetzt wurden [1, 15]: (1/8)
- Effizienz der Cardioversion ([1]; Beispiel 1 dose 3, alone or + Ibutilide 2mg/kg or + Dofetilide 10µg/kg): 38%
- Verhältnis Ziegen, bei denen Kardioversion auftrat, zu Ziegen, die eingesetzt wurden ([1]; Beispiel 1 dose 3, alone or + Ibutilide 2mg/kg or + Dofetilide 10µg/kg, listed as Verbindung des Beispiels 1): 3 von 8 and (3/8)
- Effizienz der Cardioversion [1, 16]: 63%
- Verhältnis Ziegen, bei denen Kardioversion auftrat, zu Ziegen, die eingesetzt wurden [1, 16]: (5/8)
- atriale effektive Refraktärzeit (AERP) (normalen Ziegen; [6]): 209 ± 29 ms
- atriale effektive Refraktärzeit (AERP) (normalen Ziegen; [9]): 206 ± 26 ms
- Verlängerung der AERP (normalen Ziegen; [7]): 51 ms
- Verlängerung der AERP (normalen Ziegen; [10]): 44 ms
- Zeitpunkte der Kardioversion ([2]; Beispiel 1 10mg/kg/h, time points before the start of Ibutilide at 60 min (monotherapy), one goat, listed as Verbindung des Beispiels 1, 10 mg/kg): 42.00 Minuten and 50.00 Minuten
- Kardioversion ([2]; Beispiel 1 alone at 0.1, 0.3, 1, 3 or 10 mg/kg/h, goat of Tabelle 4): nicht zur Kardioversion
- Kardioversion ([2]; monotherapy, only at 10 mg/kg/h, goat of Tabelle 3): möglich, eine Kardioversion herbeizuführen
- atriale effektive Refraktärzeit (AERP) [3, 6]: 164 ± 19 ms
- atriale effektive Refraktärzeit (AERP) [3, 9]: 160 ± 16 ms
- Verlängerung des AERP [3, 8]: 71 ms
- Verlängerung des AERP [3, 11]: 63 ms
- AFCL [4, 12]: 147 ms
- AFCL ([4]; Fig.2 goat, Beispiel 1 alone at 0.1, 0.3, 1, 3 or 10 mg/kg/h): dosisabhängigen Zunahme der AFCL
